Where “and” joins values, the source holds several entries; their conditions need not be identical. Equal entries are not always repeated.
Tests used:
C. albicans = test: Example 1 Screening II: Lactobacillus cell-free filtrate, turbidity; format: cell-based, Candida albicans; details: three times concentrated
Excerpt: (§1) Clinical isolates of Candida albicans and Candida glabrata were used as test strains. These were isolated from the vagina of women with vaginal candidiasis and from healthy females. Suspensions of lactobacilli grown in dMRSs broth (MRS broth without addition of sodium acetate) were centrifuged and sterile filtered. The filtrate is henceforth called Lactobacillus Cell-free Filtrate, LCF. A specified volume was transferred to wells of a micro titre plate and was let to air dry and thereafter resuspended in sterile distilled water to a concentration three times higher and transferred to 96-wells micro titre plates. Candida was added to all vials (three isolates of C. albicans and C. glabrata, respectively, were used). The inhibition was evaluated by visual observation of turbidity and graduated by two persons using a template on a scale from five to zero. The wells containing strong growth of Candida sp. in pure dMRSs-broth was graduated as five, while wells with no visual growth were graduated as zero.

C. glabrata = test: as above; format: cell-based, Candida glabrata; details: three times concentrated
Excerpt: as §1

Candida albicans 702 = test: Test 4: agar plug test, zones with no growth of Candida; format: cell-based; details: for Zones around the plugs with no growth of Candida, Plug with LB931: ~10^7 LB 931 per plug
Excerpt: The purpose of this test was to evaluate the enhanced Candida inhibition from Na-acetate in combination with growing cells of Lactobacillus plantarum LB 931. Two plates were made with M17 agar and two with MRS agar. MRS medium (developed by De Man, Rogosa and Sharpe), is a growth medium commonly used for Lactobacillus. MRS agar from Merck contains 5 g sodium acetate per litre agar. M17 (Oxoid) is a similar commercial substrate for Lactobacillus but without the addition of sodium acetate. The agars were prepared as described on the packages. Lactobacillus plantarum LB931 was cultivated in MRS broth in 37° C. with 5% CO2 for 24 hours. Candida albicans 702 was cultivated in M17 broth at 37° C. for 24 hours. Holes (Ø10 mm) were punched in the plates and filled with 250 μl plugs of agar mixtures containing ˜10^7 LB 931 in MRS agar). The plates were left for 30 minutes and then incubated 24 hours at 37° C. with 5% CO2. Overnight culture of C. albicans in M17 broth was diluted 10 times and 100 μl was spread on the surface of each plate. The plates were then incubated for 24 hours at 37° C. As controls, holes (Ø10 mm) were filled with only MRS agar. The plates were evaluated in respect to Candida growth inhibition. Zones around the plugs with no growth of Candida were measured (Ø mm).

With Lactobacillus fermentum Ess-1 as the substance, how does the “inhibition of growth of C. albicans” value (C. albicans) read?
The value was “comprehensive capacity to inhibit growth of Candida”.

What about the “inhibition of growth of C. glabrata” value (C. glabrata) of the same substance?
Its value is “comprehensive capacity to inhibit growth of Candida”.

With Lactobacillus plantarum LB 931 [LB931] as the substance, how does the “Zones around the plugs with no growth of Candida, Plug with LB931” value (Candida albicans 702; M17 agar in the Petri dish (without sodium acetate)) read?
Its value is 0 Ø mm.

What about the “Candida growth inhibition, in words” value (Candida albicans 702; M17 agar plates (without sodium acetate)) of the same substance?
Its value is “substantially no inhibition of Candida”.

And the “Zones around the plugs with no growth of Candida, Plug with LB931” value (Candida albicans 702; MRS agar in the Petri dish (contains 5 g sodium acetate per litre))?
The value was 18.8 Ø mm and 18.1 Ø mm.

What about the “Candida growth inhibition zones, in words” value (Candida albicans 702; MRS agar plates (sodium acetate)) of the same substance?
The value was “clear zones”.
